Results taken from patent publication US12039796B2, “Method for classifying cells” (Sartorius BioAnalytical Instruments, Inc., priority 2019, dated 2024).
Read-outs that look alike come from different tables or passages of the source.

Tests used:
HT1080 fibrosarcoma = HT1080 fibrosarcoma apoptosis time course, multiplexed NucLight Red (viability) and Caspase 3/7 Green (apoptosis) readouts with cell-by-cell analysis; type: cell-based
Procedure: Example implementations permit cell health to be tracked in sub-populations over time. […] Cell health was determined with multiplexed readouts of Incucyte® NucLight Red (nuclear viability marker) and non-perturbing Incucyte® Caspase 3/7 Green Reagent (apoptotic indicator). […] Values shown are the mean±SEM of 3 wells.
Cell health was determined with multiplexed readouts of Incucyte® NucLight Red (nuclear viability marker) and non-perturbing Incucyte® Caspase 3/7 Green Reagent (apoptotic indicator). […] Values shown are the mean±SEM of 3 wells.

A549 cells = assay: A549 cell death concentration response, cells classed Dead or Live by Annexin V fluorescence or by label-free trained model; type: cell-based; details: Homo sapiens, A549, 72 h, 0.1-10 μM, FIG. 16C
Procedure: The classification methods described herein facilitate classification of cells with an accuracy that approximates the accuracy of fluorophore-based methods. This allows for accurate classification without the expense, complexity, or experimental confounding effects that may be associated with the use of fluorescent labels. In an experiment, A549 cells were treated with increasing concentrations of the cytotoxic compound camptothecin (0.1-10 μM) for 72 h in the presence of Annexin V reagent. The cells were classed as Dead or Live based on fluorescence Annexin response (live cells=low fluorescence, dead cells=high fluorescence). The metric-based methods described herein were used to train a model using label-free features of dead (10 μM, 72 h) and live (vehicle, 0-72 h) cells.

[1] = HT1080, after treatment, FIG. 6C

SMILES: C[C@@H]1C[C@@H]([C@H](O)CC2CC(=O)NC(=O)C2)C(=O)[C@@H](C)C1 [CHX, cyclohexamide]
- apoptosis (HT1080 fibrosarcoma; HT1080, after treatment, FIG. 6G): lack of apoptosis
- cell counts (HT1080 fibrosarcoma; HT1080, after treatment, FIG. 6G (data not shown)): decrease in cell counts

SMILES: CC[C@@]1(O)C(=O)OCc2c1cc1n(c2=O)Cc2cc3ccccc3nc2-1 [camptothecin]
- EC50 (A549 cells; Annexin V fluorescence-based classification, read-out: Annexin V EC50 (% death)): 660 nM
- EC50 (A549 cells; label-free metric-based trained model classification, read-out: Label-free EC50 (% death)): 530 nM
- green fluorescence (late apoptosis) (HT1080 fibrosarcoma; HT1080, after 24 hours, FIG. 6C): increasing green fluorescence after 24 hours indicating late apoptosis
- red and green fluorescence (early apoptosis) (HT1080 fibrosarcoma; [1]): increasing red and green fluorescence indicating early apoptosis
- red population (NucLight Red, viable cells) (HT1080 fibrosarcoma; [1]): decrease in the red population
